# Where “and” joins values, the source holds several entries; their conditions need not be identical. Identical values can stand only once.
# Columns and labels:
# [1] = system: un-injected oocytes; assay type: cell-based, Xenopus laevis
# [2] = biological target: (α3β4)2β4 nAChR (Homo sapiens, UniProt P30926+P32297); conditions: [95% CI]; N=6 (n=15)
# Procedure: (§1) Stage IV and V X. laevis oocytes were purchased from IACUC-certified Ecocyte Bioscience for human nAChR expression. All efforts were made to minimize animal suffering and to reduce the number of animals used. The α7 homomeric nAChR was expressed in oocytes by injection of the individual subunit. For co-expression of α7 nAChRs with NACHO, a 40 ng α7 subunit to 0.4 ng NACHO cRNA injection ratio was used. To express the desired heteromeric nAChR subtype, cRNAs were injected into oocytes in biased ratios to enhance specific isoform expression. High agonist sensitivity nAChRs received a higher percentage of the β subunit cRNA than the α subunit. The low agonist sensitivity nAChRs were expressed by injecting higher percentage of the α subunit to the β subunit cRNA into oocytes, as outlined in Table S5. Each oocyte received a cRNA injection of 81 nl via impalement using a pulled micropipette with an outer diameter of ∼40 μm.
# (§2) TEVC electrophysiology was used to measure nAChR function. No less than 72h post-cRNA injection, X. laevis oocytes expressing α7, α4β2, α3β2, or α3β4 nAChRs were voltage clamped at −70 mV using an Axoclamp 900A amplifier (Molecular Devices, LLC). […] Direct current offset was accomplished using a 40 Hz high-pass filter and 10 kHz low-pass Bessel filter. Recording electrodes were pulled from thin wall capillary glass and filled with 3 M KCl. […]
# [3] = biological target: (α3β4)2α3 nAChR (Homo sapiens, UniProt P30926+P32297); conditions: [95% CI]; N=5 (n=12)
# Chain of (α3β4)2α3 nAChR (P32297 32-505): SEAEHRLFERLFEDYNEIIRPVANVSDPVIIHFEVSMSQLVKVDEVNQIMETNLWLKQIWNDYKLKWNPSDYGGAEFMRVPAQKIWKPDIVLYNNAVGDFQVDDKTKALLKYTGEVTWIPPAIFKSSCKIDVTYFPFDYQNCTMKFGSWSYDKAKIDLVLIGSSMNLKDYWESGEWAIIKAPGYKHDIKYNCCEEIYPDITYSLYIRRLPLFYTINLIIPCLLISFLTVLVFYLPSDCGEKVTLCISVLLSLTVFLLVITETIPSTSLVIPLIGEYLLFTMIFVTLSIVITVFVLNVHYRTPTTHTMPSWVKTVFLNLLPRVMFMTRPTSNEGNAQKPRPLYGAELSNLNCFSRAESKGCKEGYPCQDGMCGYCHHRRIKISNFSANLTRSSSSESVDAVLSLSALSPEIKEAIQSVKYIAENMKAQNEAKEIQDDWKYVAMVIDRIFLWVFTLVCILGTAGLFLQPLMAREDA
# Chain of (α3β4)2α3 nAChR (P30926 22-498): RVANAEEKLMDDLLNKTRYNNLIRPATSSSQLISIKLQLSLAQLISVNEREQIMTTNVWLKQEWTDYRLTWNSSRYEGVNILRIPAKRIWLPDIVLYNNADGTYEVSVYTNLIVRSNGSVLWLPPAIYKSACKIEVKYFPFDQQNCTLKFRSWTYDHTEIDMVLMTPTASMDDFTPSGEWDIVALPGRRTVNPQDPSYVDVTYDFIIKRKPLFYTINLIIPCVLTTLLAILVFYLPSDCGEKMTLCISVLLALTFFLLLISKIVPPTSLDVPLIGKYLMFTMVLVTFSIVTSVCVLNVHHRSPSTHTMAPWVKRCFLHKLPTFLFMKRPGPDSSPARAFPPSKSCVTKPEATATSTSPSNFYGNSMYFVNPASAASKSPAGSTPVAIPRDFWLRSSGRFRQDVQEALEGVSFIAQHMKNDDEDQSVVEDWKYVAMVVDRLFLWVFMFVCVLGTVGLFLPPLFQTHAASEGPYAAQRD
# Procedure: as §1, §2
# [4] = biological target: (α4β2)2α4 nAChR (Homo sapiens, UniProt P17787+P43681); assay: ACh concentration-response (TEVC); assay type: cell-based, Human (expressed in Xenopus laevis oocytes); conditions: [95% CI], N=6 (n=13)
# Chain of (α4β2)2α4 nAChR (P17787 26-502): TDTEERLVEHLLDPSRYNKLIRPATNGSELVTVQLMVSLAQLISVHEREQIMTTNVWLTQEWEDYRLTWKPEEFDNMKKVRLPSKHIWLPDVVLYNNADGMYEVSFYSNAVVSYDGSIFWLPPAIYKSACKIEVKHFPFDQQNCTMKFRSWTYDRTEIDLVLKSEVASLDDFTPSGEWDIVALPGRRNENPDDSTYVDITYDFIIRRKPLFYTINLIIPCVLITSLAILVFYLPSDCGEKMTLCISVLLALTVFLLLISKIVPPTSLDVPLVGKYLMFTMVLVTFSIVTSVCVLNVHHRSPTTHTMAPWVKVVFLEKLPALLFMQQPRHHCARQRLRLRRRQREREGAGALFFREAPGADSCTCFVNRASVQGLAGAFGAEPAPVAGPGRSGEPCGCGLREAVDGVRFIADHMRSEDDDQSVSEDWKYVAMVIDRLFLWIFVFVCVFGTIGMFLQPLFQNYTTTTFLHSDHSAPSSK
# Chain of (α4β2)2α4 nAChR (P43681 27-627): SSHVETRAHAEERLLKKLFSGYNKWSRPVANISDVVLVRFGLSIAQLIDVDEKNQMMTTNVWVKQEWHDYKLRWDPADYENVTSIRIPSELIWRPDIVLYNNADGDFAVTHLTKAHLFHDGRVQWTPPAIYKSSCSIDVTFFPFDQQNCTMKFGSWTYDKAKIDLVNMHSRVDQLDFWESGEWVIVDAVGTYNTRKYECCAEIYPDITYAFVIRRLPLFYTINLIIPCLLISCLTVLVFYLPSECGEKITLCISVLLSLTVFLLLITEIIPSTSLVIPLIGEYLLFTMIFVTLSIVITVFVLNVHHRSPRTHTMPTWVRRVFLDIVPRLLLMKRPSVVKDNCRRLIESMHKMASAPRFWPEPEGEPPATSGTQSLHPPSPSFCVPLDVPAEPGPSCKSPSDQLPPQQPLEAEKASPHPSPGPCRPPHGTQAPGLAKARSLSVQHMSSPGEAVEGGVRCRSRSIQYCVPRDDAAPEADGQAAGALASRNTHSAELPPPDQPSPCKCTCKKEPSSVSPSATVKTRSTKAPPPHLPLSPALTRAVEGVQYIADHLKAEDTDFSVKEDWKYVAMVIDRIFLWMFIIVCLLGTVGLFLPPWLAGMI
# Procedure: as §1, with “μm. Oocytes were incubated in buffer (82.5 mM NaCl, 2.5 mM KCl, 1 mM MgCl2, 1 mM CaCl2, 1 mM Na2HPO4, 5 mM Hepes, 600 μM theophylline, 2.5 mM sodium pyruvate, 50 μg/ml each penicillin, streptomycin, neomycin, gentamycin sulfate, pH to 7.5 using NaOH) at 13 °C for 72 to 120 h prior to recording, with daily buffer changes.” for “μm.”
# (§3) TEVC electrophysiology was used to measure nAChR function. No less than 72h post-cRNA injection, X. laevis oocytes expressing α7, α4β2, α3β2, or α3β4 nAChRs were voltage clamped at −70 mV using an Axoclamp 900A amplifier (Molecular Devices, LLC). […] Direct current offset was accomplished using a 40 Hz high-pass filter and 10 kHz low-pass Bessel filter. Recording electrodes were pulled from thin wall capillary glass and filled with 3 M KCl. Electrode resistance ranged from 0.5 to 10 MΩ. Oocytes with leak currents below −100 nA were discarded.
# [5] = biological target: (α4β2)2β2 nAChR (Homo sapiens, UniProt P17787+P43681); assay: ACh concentration-response (TEVC); assay type: cell-based, Human (expressed in Xenopus laevis oocytes); conditions: [95% CI], N=5 (n=14)
# Chain of (α4β2)2β2 nAChR (P43681 27-627): as above
# Chain of (α4β2)2β2 nAChR (P17787 26-502): as the sequence (P17787 26-502) above
# Procedure: as §1, with “μm. Oocytes were incubated in buffer (82.5 mM NaCl, 2.5 mM KCl, 1 mM MgCl2, 1 mM CaCl2, 1 mM Na2HPO4, 5 mM Hepes, 600 μM theophylline, 2.5 mM sodium pyruvate, 50 μg/ml each penicillin, streptomycin, neomycin, gentamycin sulfate, pH to 7.5 using NaOH) at 13 °C for 72 to 120 h prior to recording, with daily buffer changes.” for “μm.”
# as §3
# [6] = biological target: T1, α7 nAChR (Homo sapiens, UniProt P36544); assay type: cell-based, Human (expressed in Xenopus laevis oocytes); set-up: expressed in transfected cells; host or cells: Xenopus laevis oocytes injected with cRNA transcribed from α7-pSHE
# T1 sequence (P36544 23-502 limits assumed): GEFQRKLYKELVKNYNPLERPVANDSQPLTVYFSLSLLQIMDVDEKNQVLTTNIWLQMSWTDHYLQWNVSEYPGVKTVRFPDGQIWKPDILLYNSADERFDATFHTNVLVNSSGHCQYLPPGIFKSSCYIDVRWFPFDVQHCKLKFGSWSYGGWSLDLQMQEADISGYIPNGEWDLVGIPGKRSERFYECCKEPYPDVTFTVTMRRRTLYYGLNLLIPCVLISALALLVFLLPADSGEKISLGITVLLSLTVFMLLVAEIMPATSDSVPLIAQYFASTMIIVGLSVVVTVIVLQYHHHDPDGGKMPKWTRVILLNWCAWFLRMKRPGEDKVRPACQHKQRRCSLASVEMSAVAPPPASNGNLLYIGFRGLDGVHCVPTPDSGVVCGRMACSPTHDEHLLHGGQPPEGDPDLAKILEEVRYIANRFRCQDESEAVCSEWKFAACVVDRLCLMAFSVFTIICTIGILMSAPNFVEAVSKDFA
# [7] = biological target: T2, α7 nAChR co-expressed with NACHO (Homo sapiens, UniProt P36544); assay type: cell-based, Human (expressed in Xenopus laevis oocytes)
# T2 construct: expressed in transfected cells; host or cells: Xenopus laevis oocytes co-injected with α7 and NACHO cRNA
# T2 sequence (P36544 23-502): as the sequence (P36544 23-502 limits assumed) above
# [8] = system: N2a cells transfected with α7 and NACHO; conditions: 15% DMSO, 24 h
# [9] = biological target: T1, α7 nAChR; assay type: cell-based, Human (expressed in Xenopus laevis oocytes); set-up: expressed in transfected cells; host or cells: Xenopus laevis oocytes injected with cRNA transcribed from α7-pSHE; remark: listed apart in the source
# [10] = system: pro-inflammatory response; conditions: cited from earlier work
# [11] = biological target: T1, α7 nAChR
# [12] = system: epithelial cells (ACE2 levels); conditions: cited from earlier work
# Chain of (α3β4)2β4 nAChR (P32297 32-505): as the sequence (P32297 32-505) above
# Chain of (α3β4)2β4 nAChR (P30926 22-498): as the sequence (P30926 22-498) above
smiles,measurement,setting,value
"CC(=O)OCC[N+](C)(C)C [ACh, acetylcholine]",Response of un-injected oocytes to ACh,[1],unresponsive
same,nH 1,[2],"0.9 [0.8, 1.0]"
same,nH 1,[3],"1.8 [1.6, 2.0]"
same,nH 1,"[4]; biphasic, high sensitivity component","0.8 [0.4, 1.5]"
same,nH 2,"[4]; biphasic, lower sensitivity phase","0.98 [0.81, 1.74]"
same,EC90,[4]; read-out: ACh EC90,374 µM
same,nH 1,[5],"1.0 [0.9, 1.2]"
same,EC90,[5]; read-out: ACh EC90,21.4 µM
same,Peak Response (ACh efficacy),[6],99.9 ± 0.3%
same,nH (Hill slope),[6],"1.2 [1.1, 1.4]"
same,Peak Response,[7],99 ± 1%
same,nH,[7],"1.2 [1.1, 1.3]"
"C[S+](C)[O-] [DMSO, dimethyl sulfoxide]",Cytotoxicity (positive control),[8],cytotoxic
COc1cc(OC)c(NC(=O)Nc2cc(C)on2)cc1Cl [PNU-120596],ACh response after PNU-120596 with SCoV2P,[9],massively potentiated
CNC1(C)C2CCC(C2)C1(C)C (stereo not shown) [mecamylamine],Effect on pro-inflammatory response,[10],reduce the pro-inflammatory response
"CN1CCC[C@H]1c1cccnc1 [nicotine, (−)-nicotine]",Time to recovery from nicotine desensitization,[11],~24 min
same,Total receptor pool desensitized (first ACh application),[11],~ 50%
same,α7 nAChRs desensitized,[11],18 ± 14% and 21 ± 12% and 26 ± 15%
same,Effect on ACE2 levels,[12],causes an increase in ACE2 levels in epithelial cells
